Laboratory results taken from patent publication US20080200431A1, “Heterocyclic Sulfonamide Derivatives as Inhibitors of Factor Xa” (ASTRAZENECA AB, priority 2005, published 2008).

Molecular target: T1, human FXa (Homo sapiens, UniProt P00742)
T1 construct: FXa solution (human FXa, Haematologic Technologies Inc., Essec Junction, Vt., USA); purchased Haematologic Technologies Inc
Assay: Measurement of Factor Xa inhibition (chromogenic substrate S-2765 method)
Type: biochemical
Settings: inhibition of Factor Xa activity, screen a), specimen results
Experimental: a) Measurement of Factor Xa Inhibition
The FXa inhibitor potency was measured with a chromogenic substrate method, in a Plato 3300 robotic microplate processor (Rosys AG, CH-8634 Hombrechtikon, Switzerland), using 96-well, half-volume microtiter plates (Costar, Cambridge, Mass., USA; Cat No 3690). Stock solutions of test substance in DMSO (72 μL), 10 mmol/L, alternatively 1 mmol/L were diluted serially 1:3 (24+48 μL) with DMSO to obtain ten different concentrations, which were analyzed as samples in the assay, together with controls and blanks. As control sample melagatran was analysed. The dilutions of each test substance were analyzed consecutively, row-wise on the microtiter plate, with wash-cycles between substances to avoid cross-contamination. […] The final assay concentrations were: test substance 0.0068-133, respectively 0.00068-13.3 μmol/L, S-2765 0.40 mmol/L (KM=0.25 mmol/L) and FXa […]. The linear absorbance increase at 405 nm during 40 min incubation at 37° C. was used for calculation of percent inhibition for the test samples, as compared to references without inhibitor and/or enzyme. […]

T1 sequence (P00742 235-488 limits assumed): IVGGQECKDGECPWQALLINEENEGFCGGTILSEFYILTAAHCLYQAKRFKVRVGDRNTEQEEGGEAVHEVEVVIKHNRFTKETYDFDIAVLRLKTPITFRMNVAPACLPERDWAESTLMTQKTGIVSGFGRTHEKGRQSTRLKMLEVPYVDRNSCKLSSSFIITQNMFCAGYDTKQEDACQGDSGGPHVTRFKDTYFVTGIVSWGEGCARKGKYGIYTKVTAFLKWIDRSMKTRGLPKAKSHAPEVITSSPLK
T1 sequence (P00742 41-179 partner limits assumed): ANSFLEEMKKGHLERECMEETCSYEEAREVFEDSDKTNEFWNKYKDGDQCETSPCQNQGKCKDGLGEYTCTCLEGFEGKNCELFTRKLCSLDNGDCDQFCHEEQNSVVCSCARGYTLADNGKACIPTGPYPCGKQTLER

IC50 | Structure (SMILES)
4.8 nM | Cn1nc(N2CCC(C(=O)N3CCN(S(=O)(=O)c4ccc5c(Cl)c[nH]c5c4)C(O)C3)CC2)ccc1=O (centres unmarked) [Example 3, 6-{4-[4-(3-Chloro-1H-indole-6-sulfonyl)-3-hydroxy-piperazine-1-carbonyl]-piperidin-1-yl}-2-methyl-2H-pyridazin-3-one]
98 nM | Cc1cc(N2CCC(C(=O)N3CCN(S(=O)(=O)c4ccc5c(Cl)c[nH]c5c4)CC3)CC2)c[nH]c1=O [Example 6, 4-[4-(3-Chloro-1H-indole-6-sulfonyl)-piperazine-1-carbonyl]-5′-methyl-3,4,5,6-tetrahydro-2H,1′H-[1,3′]bipyridinyl-6′-one]
